Experimental data from patent US11542240B2, “STK19 inhibitors for treatment of cancer” (TRUSTEES OF BOSTON UNIVERSITY, priority 2018, dated 2023).

Experiments:
[1] = test system: A375 cells; experiment: immunoblots of NRAS phosphorylation and NRAS signaling; format: cell-based, human; conditions: A375 (NRASWT, BRAFV600E)
[2] = target: panel of 468 diverse kinases (Homo sapiens, UniProt O15530); experiment: biochemical; format: binding; conditions: PDPK1; 1000 nM; read-out: Percent Control
[3] = target: panel of 468 diverse kinases (Homo sapiens, UniProt Q8N4C8); experiment: biochemical; format: binding; conditions: MINK; 1000 nM; read-out: Percent Control
[4] = target: panel of 468 diverse kinases (Homo sapiens, UniProt O00238); experiment: biochemical; format: binding; conditions: BMPR1B; 1000 nM; read-out: Percent Control
panel of 468 diverse kinases (Homo sapiens, UniProt O00238), sequence (O00238 14-502 limits assumed): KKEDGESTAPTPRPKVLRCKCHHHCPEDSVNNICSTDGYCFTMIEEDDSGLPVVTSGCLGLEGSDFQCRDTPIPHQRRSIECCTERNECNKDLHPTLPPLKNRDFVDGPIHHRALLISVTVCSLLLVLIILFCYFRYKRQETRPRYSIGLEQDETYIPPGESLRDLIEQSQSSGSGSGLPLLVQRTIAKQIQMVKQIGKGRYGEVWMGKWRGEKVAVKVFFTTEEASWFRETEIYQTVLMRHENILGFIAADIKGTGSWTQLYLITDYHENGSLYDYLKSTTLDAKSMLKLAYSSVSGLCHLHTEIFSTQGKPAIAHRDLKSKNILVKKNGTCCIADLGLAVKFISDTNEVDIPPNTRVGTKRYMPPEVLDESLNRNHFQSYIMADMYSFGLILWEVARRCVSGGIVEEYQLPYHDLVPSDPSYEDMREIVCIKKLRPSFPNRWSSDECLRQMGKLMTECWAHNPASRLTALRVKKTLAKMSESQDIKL

[5] = target: panel of 468 diverse kinases (Homo sapiens, UniProt Q08345); experiment: biochemical; format: binding; conditions: DDR1; 1000 nM; read-out: Percent Control
[6] = target: panel of 468 diverse kinases (Homo sapiens, UniProt P29323); experiment: biochemical; format: binding; conditions: EPHB2; 1000 nM; read-out: Percent Control
panel of 468 diverse kinases (Homo sapiens, UniProt P29323), sequence (P29323 19-1055 limits assumed): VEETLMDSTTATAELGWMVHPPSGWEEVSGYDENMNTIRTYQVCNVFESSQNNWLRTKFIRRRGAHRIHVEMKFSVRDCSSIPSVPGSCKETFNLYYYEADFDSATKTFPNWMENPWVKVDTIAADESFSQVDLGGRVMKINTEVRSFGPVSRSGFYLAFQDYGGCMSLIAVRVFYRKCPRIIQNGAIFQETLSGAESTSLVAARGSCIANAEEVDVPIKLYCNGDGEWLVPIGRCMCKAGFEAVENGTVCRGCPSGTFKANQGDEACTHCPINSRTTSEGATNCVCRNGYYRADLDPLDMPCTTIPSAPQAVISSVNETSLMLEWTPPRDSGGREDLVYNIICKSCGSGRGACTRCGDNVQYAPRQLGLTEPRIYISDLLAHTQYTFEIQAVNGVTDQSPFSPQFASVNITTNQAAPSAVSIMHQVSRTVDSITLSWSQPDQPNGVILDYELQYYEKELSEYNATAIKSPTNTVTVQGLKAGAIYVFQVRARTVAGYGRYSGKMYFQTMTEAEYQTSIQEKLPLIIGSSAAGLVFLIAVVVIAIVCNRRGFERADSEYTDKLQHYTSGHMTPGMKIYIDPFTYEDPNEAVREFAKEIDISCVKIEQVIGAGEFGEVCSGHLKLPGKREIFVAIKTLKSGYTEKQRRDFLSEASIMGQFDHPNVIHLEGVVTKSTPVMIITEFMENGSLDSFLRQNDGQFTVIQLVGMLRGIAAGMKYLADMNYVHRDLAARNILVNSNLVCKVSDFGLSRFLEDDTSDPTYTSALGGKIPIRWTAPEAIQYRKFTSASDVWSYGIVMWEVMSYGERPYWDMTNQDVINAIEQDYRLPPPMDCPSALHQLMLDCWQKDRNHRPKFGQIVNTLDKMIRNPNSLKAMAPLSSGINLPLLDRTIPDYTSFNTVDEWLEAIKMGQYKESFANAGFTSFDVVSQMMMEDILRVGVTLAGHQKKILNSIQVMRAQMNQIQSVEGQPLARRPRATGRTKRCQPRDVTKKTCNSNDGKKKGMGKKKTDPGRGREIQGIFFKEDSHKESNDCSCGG

[7] = target: panel of 468 diverse kinases (Homo sapiens, UniProt Q8IYT8); experiment: biochemical; format: binding; conditions: ULK2; 1000 nM; read-out: Percent Control
[8] = target: panel of 468 diverse kinases (Homo sapiens, UniProt P10721, D816V); experiment: biochemical; format: binding; conditions: KIT(D816V); 1000 nM; read-out: Percent Control
panel of 468 diverse kinases (Homo sapiens, UniProt P10721, D816V), sequence (P10721 26-976 D816V limits assumed): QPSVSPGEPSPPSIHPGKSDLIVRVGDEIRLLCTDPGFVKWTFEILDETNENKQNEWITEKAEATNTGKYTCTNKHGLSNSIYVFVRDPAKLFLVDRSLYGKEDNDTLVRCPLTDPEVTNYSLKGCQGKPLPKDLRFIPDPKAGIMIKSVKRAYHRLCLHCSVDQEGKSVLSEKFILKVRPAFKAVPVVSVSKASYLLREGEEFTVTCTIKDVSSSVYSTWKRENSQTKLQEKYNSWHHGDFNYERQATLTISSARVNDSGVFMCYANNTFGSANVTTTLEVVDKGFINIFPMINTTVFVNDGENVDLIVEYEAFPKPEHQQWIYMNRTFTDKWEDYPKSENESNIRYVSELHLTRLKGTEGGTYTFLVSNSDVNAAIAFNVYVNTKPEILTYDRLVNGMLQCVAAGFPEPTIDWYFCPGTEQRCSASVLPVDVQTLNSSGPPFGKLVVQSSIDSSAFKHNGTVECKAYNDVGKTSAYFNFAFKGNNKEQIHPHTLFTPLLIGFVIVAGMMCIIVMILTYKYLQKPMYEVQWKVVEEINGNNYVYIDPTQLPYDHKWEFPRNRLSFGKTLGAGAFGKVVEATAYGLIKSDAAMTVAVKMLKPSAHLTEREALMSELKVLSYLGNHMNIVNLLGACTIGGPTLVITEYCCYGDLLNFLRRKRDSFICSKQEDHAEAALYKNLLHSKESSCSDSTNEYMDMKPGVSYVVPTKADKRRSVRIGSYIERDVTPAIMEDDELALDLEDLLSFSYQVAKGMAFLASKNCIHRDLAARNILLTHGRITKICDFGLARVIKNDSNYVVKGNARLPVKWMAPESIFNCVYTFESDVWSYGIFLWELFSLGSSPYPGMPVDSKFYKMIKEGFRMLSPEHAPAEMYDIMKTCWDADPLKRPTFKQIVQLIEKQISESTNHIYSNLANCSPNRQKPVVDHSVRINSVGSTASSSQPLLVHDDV

[9] = target: panel of 468 diverse kinases (Homo sapiens, UniProt Q9UM73); experiment: biochemical; format: binding; conditions: ALK; 1000 nM; read-out: Percent Control
[10] = target: panel of 468 diverse kinases (Homo sapiens, UniProt P22694); experiment: biochemical; format: binding; conditions: PKAC-beta; 1000 nM; read-out: Percent Control
[11] = target: panel of 468 diverse kinases (Homo sapiens, UniProt Q16512); experiment: biochemical; format: binding; conditions: PKN1; 1000 nM; read-out: Percent Control
panel of 468 diverse kinases (Homo sapiens, UniProt Q16512), sequence (Q16512 2-942 limits assumed): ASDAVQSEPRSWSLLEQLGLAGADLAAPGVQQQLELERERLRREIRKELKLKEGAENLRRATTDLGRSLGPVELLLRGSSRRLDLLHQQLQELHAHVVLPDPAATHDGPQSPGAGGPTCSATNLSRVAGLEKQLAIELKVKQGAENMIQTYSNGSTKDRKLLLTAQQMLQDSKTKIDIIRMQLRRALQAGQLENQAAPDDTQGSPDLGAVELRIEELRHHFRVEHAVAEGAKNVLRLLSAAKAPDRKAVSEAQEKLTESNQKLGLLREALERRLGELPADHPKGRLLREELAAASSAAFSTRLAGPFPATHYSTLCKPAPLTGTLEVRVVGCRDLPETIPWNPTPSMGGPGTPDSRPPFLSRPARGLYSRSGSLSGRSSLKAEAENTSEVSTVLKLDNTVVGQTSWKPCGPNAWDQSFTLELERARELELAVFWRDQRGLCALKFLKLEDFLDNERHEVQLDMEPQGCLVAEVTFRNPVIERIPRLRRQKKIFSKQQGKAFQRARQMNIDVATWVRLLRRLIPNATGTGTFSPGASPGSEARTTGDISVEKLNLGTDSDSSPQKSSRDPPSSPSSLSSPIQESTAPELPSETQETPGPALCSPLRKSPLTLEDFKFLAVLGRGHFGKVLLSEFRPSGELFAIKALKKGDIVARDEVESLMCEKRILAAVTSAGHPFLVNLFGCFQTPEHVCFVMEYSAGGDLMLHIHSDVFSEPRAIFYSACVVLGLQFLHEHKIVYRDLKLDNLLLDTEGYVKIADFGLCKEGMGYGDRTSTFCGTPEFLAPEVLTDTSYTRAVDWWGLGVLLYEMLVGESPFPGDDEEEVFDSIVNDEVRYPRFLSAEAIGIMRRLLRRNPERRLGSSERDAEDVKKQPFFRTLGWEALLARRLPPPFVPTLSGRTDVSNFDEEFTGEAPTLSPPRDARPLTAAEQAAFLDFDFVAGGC

[12] = target: panel of 468 diverse kinases (Homo sapiens, UniProt P16234); experiment: biochemical; format: binding; conditions: PDGFRA; 1000 nM; read-out: Percent Control
[13] = target: panel of 468 diverse kinases (Homo sapiens, UniProt Q99683); experiment: biochemical; format: binding; conditions: ASK1; 1000 nM; read-out: Percent Control
[14] = target: panel of 468 diverse kinases (Homo sapiens, UniProt Q9P2K8, S808G); experiment: biochemical; format: binding; conditions: GCN2(Kin.Dom.2, S808G); 1000 nM; read-out: Percent Control
[15] = target: panel of 468 diverse kinases (Homo sapiens, UniProt P36888, R834Q); experiment: biochemical; format: binding; conditions: FLT3(R834Q); 1000 nM; read-out: Percent Control
[16] = target: panel of 468 diverse kinases (Homo sapiens, UniProt P08069); experiment: biochemical; format: binding; conditions: IGF1R; 1000 nM; read-out: Percent Control
panel of 468 diverse kinases (Homo sapiens, UniProt P08069), sequence (P08069 31-736 limits assumed): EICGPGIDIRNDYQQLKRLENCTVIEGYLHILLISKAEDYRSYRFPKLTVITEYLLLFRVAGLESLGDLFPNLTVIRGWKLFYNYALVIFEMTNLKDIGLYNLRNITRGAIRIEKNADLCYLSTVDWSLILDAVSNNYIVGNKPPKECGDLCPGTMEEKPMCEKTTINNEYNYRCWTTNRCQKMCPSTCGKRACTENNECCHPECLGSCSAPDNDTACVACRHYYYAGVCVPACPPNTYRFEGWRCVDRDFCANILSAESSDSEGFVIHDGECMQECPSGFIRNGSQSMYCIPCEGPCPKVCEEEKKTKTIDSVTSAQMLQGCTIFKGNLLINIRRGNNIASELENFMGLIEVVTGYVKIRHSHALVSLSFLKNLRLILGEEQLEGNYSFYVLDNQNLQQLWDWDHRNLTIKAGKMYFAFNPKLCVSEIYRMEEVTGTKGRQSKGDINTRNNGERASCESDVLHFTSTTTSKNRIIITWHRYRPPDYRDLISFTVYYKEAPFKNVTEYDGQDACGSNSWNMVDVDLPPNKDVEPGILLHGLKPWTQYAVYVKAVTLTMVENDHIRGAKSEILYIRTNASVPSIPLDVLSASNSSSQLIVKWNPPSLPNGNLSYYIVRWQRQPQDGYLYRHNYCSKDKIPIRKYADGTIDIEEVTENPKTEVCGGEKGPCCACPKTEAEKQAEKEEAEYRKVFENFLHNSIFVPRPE
panel of 468 diverse kinases (Homo sapiens, UniProt P08069), sequence (P08069 741-1367 limits assumed): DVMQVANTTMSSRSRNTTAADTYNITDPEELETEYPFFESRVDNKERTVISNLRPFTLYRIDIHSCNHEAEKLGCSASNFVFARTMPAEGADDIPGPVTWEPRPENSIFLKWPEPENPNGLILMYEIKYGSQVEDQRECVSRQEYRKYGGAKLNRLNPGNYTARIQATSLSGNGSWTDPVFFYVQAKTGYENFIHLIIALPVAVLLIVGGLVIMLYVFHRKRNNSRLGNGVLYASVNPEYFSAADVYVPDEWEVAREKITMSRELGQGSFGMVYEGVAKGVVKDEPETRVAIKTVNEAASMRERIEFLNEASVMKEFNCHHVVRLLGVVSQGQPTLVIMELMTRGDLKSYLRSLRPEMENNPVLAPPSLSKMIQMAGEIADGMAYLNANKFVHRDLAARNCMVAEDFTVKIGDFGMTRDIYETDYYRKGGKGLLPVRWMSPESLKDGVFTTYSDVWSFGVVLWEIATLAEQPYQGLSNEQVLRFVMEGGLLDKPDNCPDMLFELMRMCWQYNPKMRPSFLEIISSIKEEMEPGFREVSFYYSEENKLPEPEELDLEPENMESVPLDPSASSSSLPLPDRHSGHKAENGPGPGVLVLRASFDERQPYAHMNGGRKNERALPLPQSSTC

[17] = target: panel of 468 diverse kinases (Homo sapiens, UniProt P43405); experiment: biochemical; format: binding; conditions: SYK; 1000 nM; read-out: Percent Control
[18] = target: panel of 468 diverse kinases (Homo sapiens, UniProt P10721, V559D); experiment: biochemical; format: binding; conditions: KIT(V559D); 1000 nM; read-out: Percent Control
panel of 468 diverse kinases (Homo sapiens, UniProt P10721, V559D), sequence (P10721 26-976 V559D limits assumed): as the sequence (P10721 26-976 D816V limits assumed) above, with V534D, V791D counted along it

[19] = target: panel of 468 diverse kinases (Homo sapiens, UniProt Q16620); experiment: biochemical; format: binding; conditions: TRKB; 1000 nM; read-out: Percent Control
[20] = target: panel of 468 diverse kinases (Homo sapiens, UniProt P10721, A829P); experiment: biochemical; format: binding; conditions: KIT(A829P); 1000 nM; read-out: Percent Control
panel of 468 diverse kinases (Homo sapiens, UniProt P10721, A829P), sequence (P10721 26-976 A829P limits assumed): as the sequence (P10721 26-976 D816V limits assumed) above, with V791D, A804P counted along it

[21] = test system: A375 cells; experiment: caspase activity assay (apoptosis), 4 days; format: cell-based, human; conditions: A375, 4 days
Source text: (§1) In addition, the inventors investigated the growth inhibitory effects of IV in melanoma cells with different NRAS and BRAF status, including A375 and UACC62 (NRASWT, BRAFV600E), and SK-MEL-2 and WM2032 (NRASQ61R, BRAFWT).

[22] = test system: WM2032 cells; experiment: caspase activity assay (apoptosis), 4 days; format: cell-based, human; conditions: WM2032, 4 days
Source text: as §1

[23] = test system: SK-MEL-2 cells; experiment: caspase activity assay (apoptosis), 4 days; format: cell-based, human; conditions: SK-MEL-2, 4 days
Source text: as §1

[24] = test system: UACC62 cells; experiment: immunoblots of NRAS phosphorylation and NRAS signaling; format: cell-based, human; conditions: UACC62 (NRASWT, BRAFV600E)
[25] = test system: WM2032 cells; format: cell-based, human
Source text: as §1
(§2) To further confirm the pharmacological effects of IV derive from STK19 inhibition and not G9a inhibition, the inventors investigated the role of G9a in NRAS signaling activation. G9a was silenced by G9a-specific shRNA or inhibited by a specific inhibitor, A-366, in SK-MEL-2 and WM2032 melanoma cells. […] In summary, ZT-12-037-01 (IV) is a specific STK19-targeted inhibitor to block oncogenic NRAS-driven melanocyte malignant transformation and melanoma growth.

[26] = test system: SK-MEL-2 cells; format: cell-based, human
Source text: as §1, §2

[27] = target: STK19 (Homo sapiens (Human), UniProt P49842); experiment: in vitro kinase assay, HA-NRASQ61R phosphorylation by immunoblot; conditions: dose- and time-dependent; different doses 15 min or 3 μM different times

**Q.** Which results are given for `COc1cc2nc(NC3CC3)nc(NC3CCN(C(C)C)CC3)c2cc1OC` [Formula IV]?
**A.** NRAS signaling, including MEK-ERK and PI3K pathways [1]: much less effective; remaining activity at 1 µM [2]: 97%; remaining activity at 1 µM [3]: 69%; remaining activity at 1 µM [4]: 55%; remaining activity at 1 µM [5]: 88%; remaining activity at 1 µM [6]: 70%; remaining activity at 1 µM [7]: 59%; remaining activity at 1 µM [8]: 100%; remaining activity at 1 µM [9]: 61%; remaining activity at 1 µM [10]: 96%; remaining activity at 1 µM [11]: 99%; remaining activity at 1 µM [12]: 75%; remaining activity at 1 µM [13]: 75%; remaining activity at 1 µM [14]: 94%; remaining activity at 1 µM [15]: 40%; remaining activity at 1 µM [16]: 97%; remaining activity at 1 µM [17]: 99%; remaining activity at 1 µM [18]: 100%; remaining activity at 1 µM [19]: 48%; remaining activity at 1 µM [20]: 78%; apoptosis [21]: reduced impact; apoptosis [22]: induced apoptosis; apoptosis [23]: induced apoptosis; NRAS signaling, including MEK-ERK and PI3K pathways [24]: much less effective; NRAS signaling, including MEK-ERK and PI3K pathways ([25]; WM2032 (NRASQ61R)): effectively inhibited; NRAS phosphorylation and activity ([25]; WM2032, IV 100 nM and 300 nM): effectively decreased; H3K9 methylation ([25]; WM2032, IV up to 300 nM): no obvious effects; NRAS signaling, including MEK-ERK and PI3K pathways ([26]; SK-MEL-2 (NRASQ61R)): effectively inhibited; NRAS phosphorylation and activity ([26]; SK-MEL-2, IV 100 nM and 300 nM): effectively decreased; H3K9 methylation ([26]; SK-MEL-2, IV up to 300 nM): no obvious effects; IV-mediated inhibition of oncogenic NRAS signaling after introduction of IV-resistant STK19 V134Y or L139F ([26]; SK-MEL-2 cells): rescued; phosphorylation of NRAS [27]: efficiently inhibited
